{"source": "patent US6262086A", "about": "“Pharmaceutical unit dosage form” (priority 2000, dated 2001)", "assay": "Solubility assessment as a function of HPβCD concentration", "assay_type": "physicochemical", "procedure": "Solubility studies were performed by the addition of a known mass of 5(6)-methoxy-2-[[(4-methoxy-3,5-dimethyl-2-pyridinyl)-methyl]sulfinyl]-1H- benzimidazole and/or HPβCD to a given volume of solvent system. Solubilities were determined by observation, as the maximum concentration at which 5(6)-methoxy-2-[[(4-methoxy-3,5-dimethyl-2-pyridinyl)-methyl]sulfinyl]-1H- benzimidazole completely dissolved. Additionally, concentrations of 5(6)-methoxy-2-[[(4-methoxy-3,5-dimethyl-2-pyridinyl)-methyl]sulfinyl]-1H- benzimidazole and HPβCD at set molar ratios were solubilized in systems of high pH (adjusted as high as 12.2, with 1N NaOH), the pH was adjusted (using 2N HCl) in a stepwise downward manner until precipitation occurred.\nThe solubility of 5(6)-methoxy-2-[[(4-methoxy-3,5-dimethyl-2-pyridinyl)-methyl]sulfinyl]-1H- benzimidazole was assessed as a function of HPβCD concentration in water.\nThe procedure according to Example 86 was repeated except that water with a borate buffer (pH of 8) was employed.\nThe procedure according to Example 86 was repeated except that water with a phosphate buffer (pH of 11) was employed.", "note": "Values joined by “and” are separate entries in the source; they are usually repeats but may differ in a detail not shown here. Equal values may be shown once.", "data": [{"compound": "COc1ccc2[nH]c([S+]([O-])Cc3ncc(C)c(OC)c3C)nc2c1", "note": "(stereo not drawn) [5(6)-methoxy-2-[[(4-methoxy-3,5-dimethyl-2-pyridinyl)-methyl]sulfinyl]-1H-benzimidazole]", "values": [{"measurement": "dependence of solubility on HPβCD concentration", "setting": "water with a borate buffer (pH of 8)", "value": "increase linearly as a function of HPβCD concentration"}, {"measurement": "dependence of solubility on HPβCD concentration", "setting": "water with a phosphate buffer (pH of 11)", "value": "increase linearly as a function of HPβCD concentration"}, {"measurement": "solubility", "setting": "water, read-out: aqueous solubility in water", "value": "~300 µg/mL and ~900 µM"}]}]}
